The text below walks through data of ChEMBL document CHEMBL1250530, “Identification of organoselenium compounds that possess chemopreventive properties in human prostate cancer LNCaP cells” (Bioorg Med Chem, 2010).

Active and inactive are the calls of the source. The rule behind the calls is not given here. Where only a bound is given, the exact number is not on record here.

The target in test [1] is T1, Nuclear factor erythroid 2-related factor 2 (Homo sapiens) (UniProt Q16236).
T1 sequence (whole entry): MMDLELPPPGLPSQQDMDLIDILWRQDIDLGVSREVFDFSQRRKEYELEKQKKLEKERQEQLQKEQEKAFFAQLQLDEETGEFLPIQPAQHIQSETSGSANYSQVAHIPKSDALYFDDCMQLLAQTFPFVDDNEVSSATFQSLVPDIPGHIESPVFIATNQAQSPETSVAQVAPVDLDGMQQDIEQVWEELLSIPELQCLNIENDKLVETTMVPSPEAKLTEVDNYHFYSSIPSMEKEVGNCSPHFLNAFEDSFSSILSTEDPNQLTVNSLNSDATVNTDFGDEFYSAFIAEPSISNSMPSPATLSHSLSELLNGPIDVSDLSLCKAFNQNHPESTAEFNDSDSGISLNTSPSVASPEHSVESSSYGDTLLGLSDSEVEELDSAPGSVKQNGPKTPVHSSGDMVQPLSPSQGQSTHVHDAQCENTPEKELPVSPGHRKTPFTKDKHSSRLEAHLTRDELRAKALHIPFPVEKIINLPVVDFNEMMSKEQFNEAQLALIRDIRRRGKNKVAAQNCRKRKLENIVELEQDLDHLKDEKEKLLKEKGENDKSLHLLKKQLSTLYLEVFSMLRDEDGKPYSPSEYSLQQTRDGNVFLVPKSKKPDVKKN
Nature of the test: Induction of NRF2-mediated ARE enhancer activity in hormone-refractory human PC3 cells transfected with pGL3-ARE-TK-luc at 5 uM after 24 hrs by luciferase assay relative to control. The conditions noted are these: PC-3. The format is functional, cell-based.

Test [2] relates to LNCaP. Nature of the test: Antioxidant activity in human LNCAP cells assessed as decrease in intracellular ROS level at 5 uM after 5 mins by fluorescence microplate reader assay. Format: functional, cell-based.
Test [3] has as its system LNCaP. In words: Growth inhibition of human LNCAP cells transfected with HO-1 siRNA at 5 uM after 72 hrs by trypan blue dye exclusion assay. Format: functional, cell-based.
The subject of test [4] is LNCaP. Nature of the test: Decrease in cyclin D1 expression in human LNCAP cells at 5 uM after 48 hrs by Western blotting. Format: functional, cell-based. In general terms: Immunoblotting shows a protein as a band on a membrane.
In test [5] the target is T1, Nuclear factor erythroid 2-related factor 2 (Homo sapiens). In words: Induction of NRF2-mediated ARE enhancer activity in hormone-sensitive human LNCaP cells transfected with pGL3-ARE-TK-luc at 5 uM after 24 hrs by luciferase assay relative to control. The format is functional, cell-based.
Test [6] concerns the target c-Jun N-terminal kinase, JNK (Homo sapiens) (UniProt P45983+P53779+P45984). In words: Effect on JNK phosphorylation in human LNCAP cells. The format is cell-based.
For test [7], the system named is LNCaP. Nature of the test: Induction of apoptosis in human LNCAP cells at 5 uM by Hoechst 33342 staining. The format is functional, cell-based.
Test [8] concerns the target MAP kinase p38 (Homo sapiens) (UniProt O15264+Q15759+Q16539+P53778). Nature of the test: Effect on p38 phosphorylation in human LNCAP cells. Format: cell-based.
In test [9] the target is T1, Nuclear factor erythroid 2-related factor 2 (Homo sapiens). In words: Increase of NRF2-mediated HO-1 expression in hormone-refractory human MDA-MB-231 cells after 24 hrs by Western blotting. The format is functional, cell-based.
The target is the same in test [10]. In words: Increase of NRF2-mediated HO-1 expression in hormone-refractory human PC3 cells at 5 uM after 24 hrs by Western blotting. Format: functional, cell-based. Particulars: PC-3.
For test [11] the target is unchanged. Nature of the test: Induction of NRF2-mediated ARE enhancer activity in hormone-refractory human DU145 cells transfected with pGL3-ARE-TK-luc at 5 uM after 24 hrs by luciferase assay relative to control. Format: functional, cell-based. Particulars: DU-145.
In test [12] the test system is LNCaP. Nature of the test: Induction of morphological changes in human LNCAP cells assessed as appearance of flattened and enlarged cells at 5 uM after 24 to 48 hrs. The format is functional, cell-based.
Test [13] has as its system LNCaP. Nature of the test: Effect on p21 expression in human LNCAP cells at 5 uM after 48 hrs by Western blotting. The format is functional, cell-based.
Test [14] concerns LNCaP. Nature of the test: Antioxidant activity in human LNCAP cells assessed as decrease in intracellular ROS level at 5 uM after 1 hr by fluorescence microplate reader assay. Format: functional, cell-based.
Test [15] concerns LNCaP. Nature of the test: Decrease in cyclin B1 expression in human LNCAP cells at 5 uM after 48 hrs by Western blotting. Format: functional, cell-based.
For test [16], the system named is LNCaP. Nature of the test: Growth inhibition of human LNCAP cells at 5 uM after 48 hrs by trypan blue dye exclusion assay in presence of 5 uM HO-1 inhibitor Zn-protoporphyrin. The format is functional, cell-based.
In test [17] the test system is LNCaP. Nature of the test: Induction of NRF2 dominant-negative mutant-mediated ARE enhancer activity in human LNCaP cells transfected with pGL3-ARE-TK-luc at 5 uM after 24 hrs by luciferase assay relative to control. The format is cell-based.
The target of test [18] is T1, Nuclear factor erythroid 2-related factor 2 (Homo sapiens). In words: Increase of NRF2-mediated HO-1 expression in human LNCaP cells after 24 hrs by Western blotting. Format: functional, cell-based.
Test [19] shares this target. In words: Induction of nuclear translocation of NRF2 in human LNCaP cells at 5 uM after 0.5 hrs by Western blotting. Format: functional, cell-based.
Test [20] shares this target. Nature of the test: Increase of NRF2-mediated HO-1 expression in hormone-refractory human DU145 cells at 5 uM after 24 hrs by Western blotting. The conditions noted are these: DU-145. Format: functional, cell-based.
The target is the same in test [21]. Nature of the test: Increase of NRF2-mediated NQO-1 expression in hormone-refractory human DU145 cells at 5 uM after 24 hrs by Western blotting. The format is functional, cell-based. Particulars: DU-145.
The target is the same in test [22]. Nature of the test: Increase of NRF2-mediated HO-1 expression in human LNCaP cells at 5 uM after 24 hrs by Western blotting. The format is functional, cell-based.
The target is the same in test [23]. In words: Increase of NRF2-mediated HO-1 expression in hormone-refractory human MCF7 cells after 24 hrs by Western blotting. Format: functional, cell-based.
The subject of test [24] is LNCaP. In words: Cytotoxicity against human LNCAP cells assessed as reduction of cells count at 5 uM after 24 to 48 hrs by trypan blue dye exclusion assay. The format is functional, cell-based.
The target of test [25] is T1, Nuclear factor erythroid 2-related factor 2 (Homo sapiens). Nature of the test: Increase of NRF2-mediated NQO-1 expression in hormone-refractory human PC3 cells at 5 uM after 24 hrs by Western blotting. The format is functional, cell-based. The conditions noted are these: PC-3.
The test system of test [26] is LNCaP. In words: Antioxidant activity in human LNCAP cells assessed as decrease in intracellular ROS level at 5 uM after 12 hrs by fluorescence microplate reader assay. The format is functional, cell-based.
Test [27] deals with RAC-alpha serine/threonine-protein kinase (Homo sapiens) (UniProt P31749). In words: Effect on c-Akt phosphorylation in human LNCAP cells. Format: cell-based.
In test [28] the test system is LNCaP. Nature of the test: Effect on ERK phosphorylation in human LNCAP cells. Format: cell-based.
Test [29] has as its target T1, Nuclear factor erythroid 2-related factor 2 (Homo sapiens). Nature of the test: Increase of NRF2-mediated HO-1 expression in human LNCaP cells at 5 uM by Western blotting. Format: functional, cell-based. The conditions noted are these: TDE = time-dependent effect.
The target is the same in test [30]. In words: Increase of NRF2-mediated NQO-1 expression in human LNCaP cells at 5 uM after 24 hrs by Western blotting. Format: functional, cell-based.
The target is the same in test [31]. Nature of the test: Induction of nuclear translocation of NRF2 in human LNCaP cells at 5 uM after 6 hrs by Western blotting. The format is functional, cell-based.
Test [32] shares this target. In words: Induction of nuclear translocation of NRF2 in human LNCaP cells at 5 uM after 1 hr by Western blotting. Format: functional, cell-based.

Chain of RAC-alpha serine/threonine-protein kinase (Homo sapiens) (P31749 whole entry): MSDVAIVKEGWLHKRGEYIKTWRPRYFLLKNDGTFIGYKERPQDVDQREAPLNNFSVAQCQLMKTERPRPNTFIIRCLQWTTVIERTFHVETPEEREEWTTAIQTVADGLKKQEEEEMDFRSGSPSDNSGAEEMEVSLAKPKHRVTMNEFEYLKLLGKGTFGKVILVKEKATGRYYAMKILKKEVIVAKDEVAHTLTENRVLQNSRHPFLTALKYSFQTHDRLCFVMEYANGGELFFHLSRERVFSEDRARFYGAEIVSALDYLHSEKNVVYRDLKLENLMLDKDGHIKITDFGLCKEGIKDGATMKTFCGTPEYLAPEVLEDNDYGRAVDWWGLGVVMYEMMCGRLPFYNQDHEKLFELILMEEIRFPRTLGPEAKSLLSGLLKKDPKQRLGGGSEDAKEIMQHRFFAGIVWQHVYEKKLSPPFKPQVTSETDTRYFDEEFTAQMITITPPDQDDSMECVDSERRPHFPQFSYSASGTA

On to `C[C@@H](O[Si](C)(C)C(C)(C)C)[C@H]1C(=O)N2/C(=N/Cc3ccccc3)[Se]/C(=C/I)C[C@H]12`, for which the fold change (FC) in test [1] is below 2; in test [5], 6; in test [11] it was below 2. For the same molecule, the inhibition result with LNCaP [2], in the test on LNCaP [4], with LNCaP [14], in the test with LNCaP [15] and in the test on LNCaP [26] was “Active” each time. In addition, the “growth inhibition (GI)” value in the test with LNCaP [3] and in the test with LNCaP [16] was “Active” each time. For the same molecule, the outcome (in test [6]; with LNCaP [7]; in test [8]; in the test with LNCaP [13]; in the test with LNCaP [17]; in test [27]) was inactive. The result with LNCaP [28] was inactive. Further, the outcome (in test [9]; in [10]; with LNCaP [12]; in test [19]; in test [20]; in test [21]) was Active. Further, the result (in test [22]; in test [23]; in the test with LNCaP [24]; in [25]; in test [30]; in test [31]) was Active. The Activity entry was “Dose-dependent effect” in test [18] and “tde” in test [29].

Turning to `C[C@@H](O[Si](C)(C)C(C)(C)C)[C@H]1C(=O)N2/C(=N/C3CCCCC3)[Se]/C(=C/I)C[C@H]12`, the fold change (FC) in test [1] is below 2; in test [5] it was 6; in test [11] it was below 2. Besides, the inhibition entry with LNCaP [2], with LNCaP [4], with LNCaP [14], in the test with LNCaP [15] and with LNCaP [26] was “Active” in each case. The “growth inhibition (GI)” value with LNCaP [3] and in the test with LNCaP [16] was “Active” throughout. For the same molecule, the result (in test [6]; in the test on LNCaP [7]; in [8]; in the test with LNCaP [13]; with LNCaP [17]; in [27]) was inactive. Besides, the outcome in the test with LNCaP [28] was inactive. Further, the result (in test [9]; in test [10]; in test [32]; in the test on LNCaP [12]; in test [20]; in [21]) was Active. The outcome (in test [22]; in [23]; with LNCaP [24]; in test [25]; in test [30]; in [31]) was Active. Moreover, the Activity entry was “Dose-dependent effect” in [18] and “tde” in test [29].

Regarding `C[C@@H](O[Si](C)(C)C(C)(C)C)[C@H]1C(=O)N2/C(=N/c3ccccc3)[Se]/C(=C/I)C[C@H]12`, in test [5], the result was Active.

Turning to `C[C@@H](O[Si](C)(C)C(C)(C)C)[C@H]1C(=O)N2/C(=N/c3ccc4ccccc4c3)[Se]/C(=C/I)C[C@H]12`, the result in test [5] was Active.
